Results from ChEMBL document CHEMBL1137977, “HCV NS5B polymerase-bound conformation of a soluble sulfonamide inhibitor by 2D transferred NOESY” (Bioorg Med Chem Lett, 2004).
pIC50: −log10 of the molar value.

molecular target: RNA-directed RNA polymerase (Hepacivirus hominis, UniProt O39930); assay: Inhibitory concentration for NS5B RNA-dependent RNA polymerase of Hepatitis C virus
Sequence (O39930 whole entry): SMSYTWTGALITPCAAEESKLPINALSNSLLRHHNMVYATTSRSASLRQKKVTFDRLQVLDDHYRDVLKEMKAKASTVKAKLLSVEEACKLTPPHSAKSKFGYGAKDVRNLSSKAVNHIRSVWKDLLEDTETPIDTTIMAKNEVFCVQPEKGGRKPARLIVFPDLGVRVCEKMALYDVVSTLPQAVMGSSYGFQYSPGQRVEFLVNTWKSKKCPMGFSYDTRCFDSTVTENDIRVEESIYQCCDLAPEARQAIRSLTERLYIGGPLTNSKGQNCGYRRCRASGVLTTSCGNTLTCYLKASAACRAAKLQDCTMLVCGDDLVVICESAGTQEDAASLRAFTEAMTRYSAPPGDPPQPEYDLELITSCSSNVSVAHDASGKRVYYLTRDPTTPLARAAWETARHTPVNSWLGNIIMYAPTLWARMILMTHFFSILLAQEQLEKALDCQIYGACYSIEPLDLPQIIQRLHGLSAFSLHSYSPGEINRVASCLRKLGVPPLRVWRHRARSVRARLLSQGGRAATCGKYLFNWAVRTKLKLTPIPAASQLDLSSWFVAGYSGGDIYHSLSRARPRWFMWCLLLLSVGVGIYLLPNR

pIC50 | Structure (SMILES)
5.40 | Cc1ccccc1S(=O)(=O)Nc1cc(-c2ccncc2)sc1C(=O)O
5.30 | Cc1cc(S(=O)(=O)Nc2cc(-c3ccccc3)sc2C(=O)O)c(C)cc1Cl
4.82 | O=C(O)c1sc(-c2ccccc2)cc1NS(=O)(=O)c1ccc(C(F)(F)F)cn1
4.60 | O=C(O)c1sc(-c2ccccc2)cc1NS(=O)(=O)c1ccccn1
5.40 | O=C(O)c1sc(-c2ccc(F)cc2)cc1NS(=O)(=O)c1ccccn1
4.85 | Cc1cc(S(=O)(=O)Nc2cc(-c3ccccc3)sc2C(N)=O)c(C)cc1Cl
